{"source": "patent US20140087451A1", "about": "“ACOUSTIC WAVE (AW) SENSING DEVICES USING LIVE CELLS” (University of Massachusetts, priority 2010, published 2014)", "key": {"[1]": {"system": "Human Microvascular Endothelial Cells derived from Lung (HMVEC-L)", "experiment": "Surface acoustic wave (SAW) device, 21 MHz, frequency and attenuation response of attached cells", "type": "cell-based", "details": "for sensitivity (frequency shift normalized to operating frequency and number of live attached cells): SAW 21 MHz", "experimental": "An AT cut quartz wafer was prepared with electrodes for a surface acoustic wave (SAW) patterned on one side. The transmitting and receiving electrodes were composed of interdigitated (IDT) electrodes fabricated by lift off of gold deposited by electron beam evaporation. The IDTs were composed of 120 pairs of electrode fingers. This spacing corresponds to the wavelength of a SAW of 21 MHz. The sensing area between the IDTs was 20×8 mm. A 2 μm thick layer of poly(methylmethacrylate) (PMMA) was spin coated onto the surface of the SAW to serve as an insulating layer for the IDTs as well as a waveguide for the Love waves generated by the transmitting IDT.\nThe SAW was connected to an Agilent E5061B network analyzer, set up for transmission measurements (s12). Before liquid was added, the resonant frequency of 21 MHz was confirmed. Using Labview software, the resonant frequency and attenuation of the SAW was measured once per second during an experiment. A drop of cell media containing cells was placed in the sensing area allowing cells to attach, as described below.\nThe Human Microvascular Endothelial Cells derived from Lung (HMVEC-L) cell line was obtained from Lonza (Basel, Switzerland) and stock cultures were established and grown in media recommended by the manufacturers, at 37° C. in a humidity controlled incubator with 5% CO2, unless otherwise noted. The media used was EBM™-2, (CC-3156) (Lonza Basel, Switzerland) with EGM™-2-MV BulletKit™ (CC-3202) (Lonza Basel, Switzerland) containing hEGF, Hydrocortisone, GA-1000 (Gentamicin, Amphotericin-B), VEGE, hFGF-B, R3-IGF-1 and 5% FBS. The HMVEC-L cells were grown in 25 cm^2 rectangular canted neck cell culture flasks with vented caps (Corning Life Science, Lowell, Mass.), and re-fed every three days and passaged once a week using a 0.05% solution of trypsin:EGTA (Invitrogen, Carlsbad, Calif.) as stock cultures.\nTwo different treatments of the cells on the SAW device were carried out in separate experiments. […] All the solutions were stored at 4° C. in a refrigerator. Prior to cell plating onto the SAW device, the SAW device was cleaned by rinsing with distilled water and then UV sterilized for 30 min. After sterilization and further washing with water and Phosphate Buffered Saline (PBS), 50 μl of medium containing 20,000 HMVEC-L cells was added to the sensing area of the SAW device, which had been previously placed within a 150 mm diameter Petri dish. Smaller Petri dishes filled with reservoirs of media were placed around the central SAW device, in order to provide additional surface area for evaporation of water. The purpose of this arrangement, large volume and area reservoirs of iso-osmotic pressure media in the Petri dishes, was to prevent evaporative loss of water from the small volume of media covering the cells in the sensing area of the SAW device. The SAW device in the large covered Petri dish was located on the bench top in ambient air. The Petri dish cover was removed and cells were plated in media onto the sensing area surface of the SAW device and the HMVEC-L cells in the covered Petri dish were allowed to attach to the sensing area SAW device surface for 18 hr. Then, the media was changed with 50 μl fresh medium."}, "HMVEC-L cells": {"system": "HMVEC-L cells", "experiment": "Commercial quartz crystal microbalance (QCM), 10 MHz fundamental frequency, equivalent prior experiments", "type": "cell-based, human"}, "HMECs": {"system": "HMECs", "details": "bFGF added to HMECs; cited from earlier work"}, "[2]": {"system": "Human Mammary Epithelial Cells (HMECs)", "experiment": "QCM (10 MHz) fundamental and third overtone frequency shift with attached cells treated with growth factor", "type": "cell-based", "details": "bFGF 12.5 ng/ml final; 20,000 HMEC cells on 10 MHz QCM; 300 min after addition; FIG. 6", "from_the_text": "An AT cut 0.538″ diameter quartz disk with 100 nm thick gold electrodes was used for the piezoelectric medium in this experiment. A polydimethylsiloxane (PDMS) tube with an outer diameter of 0.4″ and an inner diameter of 0.3″ and 0.3″ high was attached to one side of the quartz disk for use as a reservoir for cell media. The quartz crystal was mounted in a HC35/U holder with silver epoxy bonding between the electrodes and the gold electrodes on the crystal.\nThe oscillator circuitry is a Colpitts oscillator, shown in FIG. 7, modified to enable the quartz to undergo shear wave oscillations under a liquid load. The thickness of the crystal is such that an unloaded crystal oscillating in air would operate at 10 MHz. The Colpitts oscillator was tuned to only amplify frequencies in the range of 10 MHz. A second class C amplifier operating as a frequency multiplier was connected to the ungrounded electrode of the quartz crystal. The multiplier was tuned to capture the crystal's third harmonic oscillations. The output of the multiplier and the voltage at the crystal were connected to the inputs of a two channel oscilloscope. The waveforms were digitally captured using Labview software and passed through a fast Fourier transform. The frequency of the signals were captured and recorded at one minute intervals, prior to and following addition of cells to the crystal surface. […]"}, "[3]": {"system": "its specific growth factor receptor", "details": "stated as 'has been shown'; cited from earlier work"}}}
{"molecule": "[N-]=[N+]=[N-]", "note": "[sodium azide, Sodium azide]", "values": [{"measurement": "change in Attenuation values", "setting": "[1]; 50 mM sodium azide final, 20,000 HMVEC-L cells on SAW device, FIG. 11", "result": "approximately 8 dBm"}, {"measurement": "increase in frequency", "setting": "[1]; 50 mM sodium azide final, 20,000 HMVEC-L cells on SAW sensing area, 4 hr after addition, FIG. 11", "result": "about 17 kHz"}, {"measurement": "sensitivity (frequency shift normalized to operating frequency and number of live attached cells)", "setting": "[1]; 50 mM sodium azide experiment", "result": "5.6×10^−8 /cell"}, {"measurement": "equivalent sensitivity", "setting": "HMVEC-L cells; 50 mM azide experiment", "result": "4.1×10^−9 /cell"}]}
{"molecule": "bFGF: Basic human Fibroblast Growth Factor from Sigma, reconstituted in 50 mM Tris-HCl pH7.5", "values": [{"measurement": "lag time of proliferative response (increase in thymidine incorporation)", "setting": "HMECs", "result": "about 21 hr"}, {"measurement": "frequency shift of third overtone compared to the fundamental in response to the growth factor", "setting": "[2]", "result": "larger frequency shift"}, {"measurement": "time to bind and activate its specific growth factor receptor", "setting": "[3]", "result": "≤ 8", "unit": "min"}]}
{"molecule": "trypsin", "values": [{"measurement": "abrupt increase in frequency", "setting": "[1]; 0.05% trypsin:EGTA, cell release, 20,000 HMVEC-L cells on SAW sensing area, FIG. 12", "result": "about 60 kHz"}, {"measurement": "sensitivity (frequency shift normalized to operating frequency and number of live attached cells)", "setting": "[1]; Trypsin enzymatic removal experiment", "result": "3.75×10^−7 /cell"}, {"measurement": "equivalent sensitivity", "setting": "HMVEC-L cells; trypsinization experiment", "result": "1×10^−8 /cell"}]}
